The source of these data is patent US20150291598A1 (NOVARTIS AG, priority 2012, published 2015).

The assay concerns P. falciparum (NF54 or 3D7 strain). As to the kind of experiment: Assay for P. falciparum proliferation in infected human blood cells (SYBR Green). Particulars: Plasmodium falciparum, Erythrocyte, 72 h, NF54 or 3D7 infected human erythrocytes, 72 hours; read-out: EC50 (nM), inhibitory efficacy in delaying P. falciparum proliferation in infected human blood cells. The format is cell-based, Plasmodium falciparum. Put shortly:
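Infected erythrocytes (NF54 or 3D7; final 2.5% hematocrit, 0.3% parasitemia) were incubated with compounds for 72 h at 37 °C in low oxygen (3% O2, 4% CO2, 93% N2).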
On to `CN(C(=O)c1cn2c(-c3ccc(C(F)(F)F)nc3)cnc2cn1)c1ccc(C#N)cc1` [Compound 187, N-(4-cyanophenyl)-N-methyl-3-[6-(trifluoromethyl)pyridin-3-yl]imidazo[1,2-a]pyrazine-6-carboxamide], for which the EC50 was determined as 1380 nM.
Next, `CCN(CC)C(=O)c1ccc(-c2cnc3cnc(C(=O)N(C)c4ccc(C#N)cc4)cn23)cc1` [Compound 188, N-(4-cyanophenyl)-3-[4-(diethylcarbamoyl)phenyl]-N-methylimidazo[1,2-a]pyrazine-6-carboxamide]: above 10000 nM; `CN(C(=O)c1cn2c(-c3cnn(C)c3)cnc2cn1)c1ccc(C#N)cc1` [Compound 189, N-(4-cyanophenyl)-N-methyl-3-(1-methyl-1H-pyrazol-4-yl)imidazo[1,2-a]pyrazine-6-carboxamide]: 7890 nM.
Take `Cc1cccc(CN(C)C(=O)c2cn3c(-c4ccc(C(F)(F)F)cc4)cnc3cn2)n1` [Compound 190, N-methyl-N-[(6-methylpyridin-2-yl)methyl]-3-[4-(trifluoromethyl)phenyl]imidazo[1,2-a]pyrazine-6-carboxamide]: the EC50 came to 6240 nM.
Next, `CN(C(=O)c1cn2c(-c3cccc(C#N)c3)cnc2cn1)c1ccc(C#N)cc1` [Compound 191, 3-(3-cyanophenyl)-N-(4-cyanophenyl)-N-methylimidazo[1,2-a]pyrazine-6-carboxamide]: 7730 nM; `CN(Cc1ccc(F)cc1)C(=O)c1cn2c(-c3ccc(C(F)(F)F)cc3)cnc2cn1` [Compound 192, N-[(4-fluorophenyl)methyl]-N-methyl-3-[4-(trifluoromethyl)phenyl]imidazo[1,2-a]pyrazine-6-carboxamide]: 7390 nM.
Turning to `CN(C(=O)c1cn2c(-c3ccc(C4CCCN4)cc3)cnc2cn1)c1ccc(C#N)cc1` (stereo not shown) [Compound 193, N-(4-cyanophenyl)-N-methyl-3-[4-(pyrrolidin-2-yl)phenyl]imidazo[1,2-a]pyrazine-6-carboxamide], the EC50 was 8590 nM.
Then `CN(Cc1cccnc1)C(=O)c1cn2c(-c3ccc(C(F)(F)F)cc3)cnc2cn1` [Compound 194, N-methyl-N-(pyridin-3-ylmethyl)-3-[4-(trifluoromethyl)phenyl]imidazo[1,2-a]pyrazine-6-carboxamide], with 6950 nM; and `CN(C(=O)c1cn2c(-c3cccnc3)cnc2cn1)c1ccc(C#N)cc1` [Compound 195, N-(4-cyanophenyl)-N-methyl-3-(pyridin-3-yl)imidazo[1,2-a]pyrazine-6-carboxamide], with above 10000 nM.
Then `CN(C(=O)c1cn2c(-c3ccc(Cl)cn3)cnc2cn1)c1ccc(C#N)cc1` [Compound 196, 3-(5-chloropyridin-2-yl)-N-(4-cyanophenyl)-N-methylimidazo[1,2-a]pyrazine-6-carboxamide], with 9350 nM; and `CN(C(=O)c1cn2c(-c3ccc(S(=O)(=O)N(C)C)cc3)cnc2cn1)c1ccc(C#N)cc1` [Compound 197, N-(4-cyanophenyl)-3-[4-(dimethylsulfamoyl)phenyl]-N-methylimidazo[1,2-a]pyrazine-6-carboxamide], with above 10000 nM; and `CC1CCN(c2nc(-c3cnc4cnc(C(=O)N(C)c5ccc(C#N)cc5)cn34)cs2)CC1` [Compound 198, N-(4-cyanophenyl)-N-methyl-3-[2-(4-methylpiperidin-1-yl)-1,3-thiazol-4-yl]imidazo[1,2-a]pyrazine-6-carboxamide], with above 10000 nM.
Take `Cc1cccc(-c2cnc3cnc(C(=O)N(C)c4ccc(C#N)cc4)cn23)c1` [Compound 199, N-(4-cyanophenyl)-N-methyl-3-(3-methylphenyl)imidazo[1,2-a]pyrazine-6-carboxamide]: the EC50 was 7320 nM.
With `CN(C(=O)c1cn2c(-c3cn[nH]c3)cnc2cn1)c1ccc(C#N)cc1` [Compound 200, N-(4-cyanophenyl)-N-methyl-3-(1H-pyrazol-4-yl)imidazo[1,2-a]pyrazine-6-carboxamide], the EC50 is above 10000 nM.
For the molecule `CN1CCc2cc(-c3cnc4cnc(C(=O)N(C)c5ccc(C#N)cc5)cn34)ccc21` [Compound 201, N-(4-cyanophenyl)-N-methyl-3-(1-methyl-2,3-dihydro-1H-indol-5-yl)imidazo[1,2-a]pyrazine-6-carboxamide], the EC50 turned out to be 1080 nM.
Consider `CN(C(=O)c1cn2c(-c3ccc4nonc4c3)cnc2cn1)c1ccc(C#N)cc1` [Compound 202, 3-(2,1,3-benzoxadiazol-5-yl)-N-(4-cyanophenyl)-N-methylimidazo[1,2-a]pyrazine-6-carboxamide], for which the EC50 is above 10000 nM.
For the molecule `CN(C(=O)c1cn2c(-c3cnc4c(c3)ncn4C)cnc2cn1)c1ccc(C#N)cc1` [Compound 203, N-(4-cyanophenyl)-N-methyl-3-{3-methyl-3H-imidazo[4,5-b]pyridin-6-yl}imidazo[1,2-a]pyrazine-6-carboxamide], the EC50 was determined as 6490 nM.
With `CN(C(=O)c1cn2c(-c3ccc4c(c3)CC(=O)N4)cnc2cn1)c1ccc(C#N)cc1` [Compound 204, N-(4-cyanophenyl)-N-methyl-3-(2-oxo-2,3-dihydro-1H-indol-5-yl)imidazo[1,2-a]pyrazine-6-carboxamide], the EC50 was 6510 nM.
Turning to `CN(C(=O)c1cn2c(-c3ccc4c(cnn4C)c3)cnc2cn1)c1ccc(S(C)(=O)=O)cc1` [Compound 205, N-(4-methanesulfonylphenyl)-N-methyl-3-(1-methyl-1H-indazol-5-yl)imidazo[1,2-a]pyrazine-6-carboxamide], the EC50 stood at 7450 nM.
On to `CN(C(=O)c1cn2c(-c3ccc(C(F)(F)F)cc3)cnc2cn1)c1ccc(-n2ccc(C(F)(F)F)n2)cc1` [Compound 206, -methyl-N-{4-[3-(trifluoromethyl)-1H-pyrazol-1-yl]phenyl}-3-[4-(trifluoromethyl)phenyl]imidazo[1,2-a]pyrazine-6-carboxamide], for which the EC50 was above 9760 nM.
For `CN(C)Cc1ccc(-c2cnc3cnc(C(=O)N(C)c4ccc(C#N)cc4)cn23)cc1` [Compound 207, N-(4-cyanophenyl)-3-{4-[(dimethylamino)methyl]phenyl}-N-methylimidazo[1,2-a]pyrazine-6-carboxamide], the EC50 was 4600 nM.
For `CN(C(=O)c1cn2c(-c3ccc(-c4ccnn4C)cc3)cnc2cn1)c1ccc(C#N)cc1` [Compound 208, N-(4-cyanophenyl)-N-methyl-3-[4-(1-methyl-1H-pyrazol-5-yl)phenyl]imidazo[1,2-a]pyrazine-6-carboxamide], the EC50 was 724 nM.
As to `CN(C(=O)c1cn2c(-c3ccc(OC(F)F)cc3)cnc2cn1)c1ccc(S(C)(=O)=O)cc1` [Compound 209, 3-[4-(difluoromethoxy)phenyl]-N-(4-methanesulfonylphenyl)-N-methylimidazo[1,2-a]pyrazine-6-carboxamide], the EC50 was 2700 nM.
As to `NC(=O)c1ccc(-c2cn3c(-c4ccc(C(N)=O)cc4)cnc3cn2)cc1` [Compound 210, 4-[3-(4-carbamoylphenyl)imidazo[1,2-a]pyrazin-6-yl]benzamide], the EC50 is 1980 nM.
In the case of `CN(C(=O)c1cn2c(-c3cnc(N4CCCC4=O)cn3)cnc2cn1)c1ccc(C#N)cc1` [Compound 211, N-(4-cyanophenyl)-N-methyl-3-[5-(2-oxopyrrolidin-1-yl)pyrazin-2-yl]imidazo[1,2-a]pyrazine-6-carboxamide], the EC50 came out at 9390 nM.
